Reference: patent US12398107B2, “Fungicidal nitroanilino substituted pyrazoles” (FMC Corporation, priority 2018, dated 2025)

Experiments:
Type in all cases: in vivo
[1] = system: Alternaria solani; assay: Test F: tomato early blight, preventive spray on tomato seedlings; conditions: 100 = 100% disease control, 0 = no control
How it was run: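 Compounds in acetone/water (50/50) with 250 ppm PEG400, dosed in ppm, sprayed to run-off on tomato seedlings; next day inoculated with A. solani spores. Held 48 h saturated at 27° C, then 3 days at 20° C; visual rating 0–100% disease control relative to controls.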

[2] = system: Botrytis cinerea; assay: Test E: tomato Botrytis, preventive spray on tomato seedlings; conditions: 100 = 100% disease control, 0 = no control
How it was run: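 Tomato seedlings sprayed to run-off with compound (ppm) in acetone/water with 250 ppm PEG400, then inoculated next day with B. cinerea spores. Held 48 h at 20 °C in saturated atmosphere, then 3 days at 24 °C. Visual rating 0–100% disease control relative to untreated controls.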

[3] = system: Septoria tritici; assay: Test A: wheat leaf blotch, preventive spray on wheat seedlings; conditions: 100 = 100% disease control, 0 = no control relative to controls
How it was run: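 Compounds were suspended in acetone/water (50/50) with 250 ppm PEG400 and sprayed to run-off on wheat seedlings. The next day the seedlings were inoculated with Septoria tritici spores, held 48 h at 24 °C in saturated humidity, then 17 days at 20 °C. Disease control was rated 0–100 relative to controls.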

[4] = system: Phakopsora pachyrhizi; assay: Test D: Asian soybean rust, preventive spray on soybean seedlings; conditions: 100 = 100% disease control, 0 = no control
How it was run: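 Soybean seedlings sprayed to run-off with compound suspension (ppm, in 50/50 acetone/water with 250 ppm PEG400), inoculated next day with P. pachyrhizi spores, held 24 h saturated at 22°C then 8 days at 22°C. Visual rating 0-100% disease control relative to controls.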

[5] = system: Puccinia recondita f. sp. tritici; assay: Test B: wheat leaf rust, preventive spray on wheat seedlings; conditions: 100 = 100% disease control, 0 = no control relative to controls
How it was run: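 Compounds in acetone/water (50/50) with 250 ppm PEG400, sprayed to run-off on wheat seedlings at stated ppm; inoculated next day with P. recondita spores. Held 24 h saturated at 20° C., then 7 days in growth chamber at 20° C.; rating 0–100 = % disease control vs controls.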

[6] = system: Blumeria graminis f. sp. tritici; assay: Test C: wheat powdery mildew, preventive spray on wheat seedlings; conditions: rated after 8 days, 100 = 100% disease control, 0 = no control
How it was run: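 Compound dissolved in acetone (3% of final volume), then suspended in 50/50 acetone/water with 250 ppm PEG400 and sprayed to run-off on wheat seedlings. Inoculated next day with B. graminis f. sp. tritici spore dust, kept 8 days at 20° C; visual rating, 100 = full control, 0 = none, relative to controls.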

Structure (SMILES) | Test F disease control rating (tomato early blight) ([1]; 50 ppm) [%] | Test E disease control rating (tomato Botrytis) ([2]; 50 ppm) [%] | Test A disease control rating (wheat leaf blotch) ([3]; 50 ppm) [%] | Test D disease control rating (Asian soybean rust) ([4]; 50 ppm) [%] | Test B disease control rating (wheat leaf rust) ([5]; 50 ppm) [%] | Test C disease control rating (wheat powdery mildew) ([6]; 50 ppm) [%] | pest or weed control at 10 ppm ([1]; Alternaria solani, 10 ppm, read-out: Test F disease control rating (tomato early blight)) [%] | pest or weed control at 50 ppm ([1]; Alternaria solani, 50 ppm, read-out: Test F disease control rating (tomato early blight)) [%] | pest or weed control at 10 ppm ([2]; Botrytis cinerea, 10 ppm, read-out: Test E disease control rating (tomato Botrytis)) [%] | pest or weed control at 50 ppm ([2]; Botrytis cinerea, 50 ppm, read-out: Test E disease control rating (tomato Botrytis)) [%] | pest or weed control at 10 ppm ([3]; Zymoseptoria tritici, 10 ppm, read-out: Test A disease control rating (wheat leaf blotch)) [%] | pest or weed control at 50 ppm ([3]; Zymoseptoria tritici, 50 ppm, read-out: Test A disease control rating (wheat leaf blotch)) [%] | pest or weed control at 10 ppm ([4]; Phakopsora pachyrhizi, 10 ppm, read-out: Test D disease control rating (Asian soybean rust)) [%] | pest or weed control at 50 ppm ([4]; Phakopsora pachyrhizi, 50 ppm, read-out: Test D disease control rating (Asian soybean rust)) [%] | pest or weed control at 10 ppm ([5]; 10 ppm, read-out: Test B disease control rating (wheat leaf rust)) [%] | pest or weed control at 50 ppm ([5]; 50 ppm, read-out: Test B disease control rating (wheat leaf rust)) [%] | pest or weed control at 10 ppm ([6]; Blumeria graminis, 192 h, 10 ppm, read-out: Test C disease control rating (wheat powdery mildew)) [%] | pest or weed control at 50 ppm ([6]; Blumeria graminis, 192 h, 50 ppm, read-out: Test C disease control rating (wheat powdery mildew)) [%]
CCc1nn(C)c(Nc2c(Cl)cccc2[N+](=O)[O-])c1-c1ccc(F)cc1F [Compound 17] | 9 | 99 | 100 | 0 | 92 | 94 |  |  |  |  |  |  |  |  |  |  |  | 
Cc1nn(C)c(Nc2ccc(Br)cc2[N+](=O)[O-])c1-c1ccc(F)cc1Br [Compound 21] | 17 | 95 | 100 | 0 | 86 | 84 |  |  |  |  |  |  |  |  |  |  |  | 
Cc1nn(C)c(Nc2c(F)cccc2[N+](=O)[O-])c1-c1ccc(F)cc1F [Compound 118, 4-(2,4-difluorophenyl)-N-(2-fluoro-6-nitrophenyl)-1,3-dimethyl-1H-pyrazol-5-amine] |  |  |  |  |  |  | 60 | 99 | 99 | 100 | 100 | 100 | 0 | 0 | 80 | 100 | 27 | 98
Cc1nn(C)c(Nc2c(Cl)cccc2[N+](=O)[O-])c1-c1ccc(Cl)cc1Cl [Compound 133] | 0 | 97 | 100 | 0 | 86 | 0 |  |  |  |  |  |  |  |  |  |  |  | 
COc1ccc(-c2c(C)nn(C)c2Nc2c(C)cccc2[N+](=O)[O-])c(Cl)c1 [Compound 183] | 58 | 100 | 100 | 0 | 99 | 78 |  |  |  |  |  |  |  |  |  |  |  | 
CCn1nc(C)c(-c2ccc(F)cc2Cl)c1Nc1c(F)cccc1[N+](=O)[O-] [Compound 71] | 98 | 99 | 100 | 82 | 100 | 99 |  |  |  |  |  |  |  |  |  |  |  | 
COc1ccc(Nc2c(-c3ccc(F)cc3Br)c(C)nn2C)c([N+](=O)[O-])c1 [Compound 52] | 94 | 99 | 100 | 59 | 100 | 90 |  |  |  |  |  |  |  |  |  |  |  | 
COc1ccc(-c2c(C)nn(C)c2Nc2c(Cl)cccc2[N+](=O)[O-])c(Cl)c1 [Compound 184] | 26 | 100 | 100 | 0 | 100 | 21 |  |  |  |  |  |  |  |  |  |  |  | 
